# Measurements: the supplement of paper PMC10307832
# What was measured:
# Test in all cases: relative viability (nuclei count vs DMSO), 5 days (fraction); higher = more cells survive
# Midostaurin + Dasatinib = compound: CO[C@@H]1[C@H](N(C)C(=O)c2ccccc2)C[C@H]2O[C@]1(C)n1c3ccccc3c3c4c(c5c6ccccc6n2c5c31)C(=O)NC4 [Midostaurin] + Cc1nc(Nc2ncc(C(=O)Nc3c(C)cccc3Cl)s2)cc(N2CCN(CCO)CC2)n1 [Dasatinib] (partner 0.075 µM)
# Outline: (§1)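 Dosing by pin tool came one day after lung cancer cell lines were seeded in 1536-well plates, using either one drug or a fixed anchor-drug dose plus five library-drug doses (not always all listed) in √10 steps. After 5 days, nuclei were counted on 4× images. Relative viability is treated-well nuclei count divided by vehicle-well nuclei count, and values are medians of duplicate plates.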
# [1] = compound: CO[C@@H]1[C@H](N(C)C(=O)c2ccccc2)C[C@H]2O[C@]1(C)n1c3ccccc3c3c4c(c5c6ccccc6n2c5c31)C(=O)NC4 [Midostaurin] + CC(=O)c1c(C)c2cnc(Nc3ccc(N4CCNCC4)cn3)nc2n(C2CCCC2)c1=O [Palbociclib] (partner 0.5 µM)
# Outline: as §1
# [2] = compound: COc1cc(-c2nn([C@H]3CC[C@H](N4CCN(C(C)=O)CC4)CC3)c3ncnc(N)c23)ccc1NC(=O)c1cc2ccccc2n1C + COc1cc2c(Oc3ccc(NC(=O)C4(C(=O)Nc5ccc(F)cc5)CC4)cc3F)ccnc2cc1OCCCN1CCOCC1 [Foretinib] (partner 0.25 µM)
# Outline: as §1
# [3] = compound: COc1cc(-c2nn([C@H]3CC[C@H](N4CCN(C(C)=O)CC4)CC3)c3ncnc(N)c23)ccc1NC(=O)c1cc2ccccc2n1C + CS(=O)(=O)N1CCN(Cc2cc3nc(-c4cccc5[nH]ncc45)nc(N4CCOCC4)c3s2)CC1 [Pictilisib] (partner 1 µM)
# Outline: as §1
# [4] = compound: COc1cc(-c2nn([C@H]3CC[C@H](N4CCN(C(C)=O)CC4)CC3)c3ncnc(N)c23)ccc1NC(=O)c1cc2ccccc2n1C + CC(=O)c1c(C)c2cnc(Nc3ccc(N4CCNCC4)cn3)nc2n(C2CCCC2)c1=O [Palbociclib] (partner 0.5 µM)
# Outline: as §1
Cell Line,relative viability (Midostaurin + Dasatinib; first compound 0.01 µM),relative viability (Midostaurin + Dasatinib; first compound 0.03162 µM),relative viability (Midostaurin + Dasatinib; first compound 0.1 µM),relative viability (Midostaurin + Dasatinib; first compound 0.3162 µM),relative viability ([1]; first compound 0.01 µM),relative viability ([1]; first compound 0.03162 µM),relative viability ([1]; first compound 0.1 µM),relative viability ([1]; first compound 0.3162 µM),relative viability ([2]; first compound 0.0128 µM),relative viability ([2]; first compound 0.04048 µM),relative viability ([2]; first compound 0.128 µM),relative viability ([2]; first compound 1.28 µM),relative viability ([3]; first compound 0.0128 µM),relative viability ([3]; first compound 0.04048 µM),relative viability ([3]; first compound 0.128 µM),relative viability ([3]; first compound 1.28 µM),relative viability ([4]; first compound 0.0128 µM),relative viability ([4]; first compound 0.04048 µM),relative viability ([4]; first compound 0.128 µM),relative viability ([4]; first compound 1.28 µM)
NCI-H2126,0.623,0.502,0.596,0.644,0.332,0.364,0.359,0.383,1.34,1,1.11,0.983,0.567,0.434,0.48,0.438,0.35,0.372,0.344,0.329
HOP-62,0.674,0.675,0.643,0.509,0.452,0.48,0.455,0.501,1.16,1.12,1.07,1.03,0.831,0.285,0.738,0.604,0.503,0.468,0.411,0.432
CAL-12T,0.446,0.395,0.295,0.239,0.513,0.492,0.405,0.308,1.13,1.06,1.31,1.12,0.392,0.397,0.512,0.281,0.485,0.277,0.459,0.24
NCI-H520,0.176,0.178,0.272,0.203,0.24,0.228,0.246,0.276,0.755,0.731,0.65,0.613,0.293,0.337,0.247,0.216,0.197,0.227,0.206,0.12
NCI-H1755,0.413,0.447,0.436,0.343,0.482,0.433,0.429,0.383,1.02,0.87,0.833,0.885,0.509,0.169,0.402,0.299,0.54,0.467,0.458,0.402
NCI-H2023,0.585,0.691,0.539,0.443,0.482,0.428,0.341,0.192,0.802,0.804,0.717,0.535,0.277,0.188,0.212,0.22,0.436,0.358,0.318,0.293
NCI-H2009,0.33,0.268,0.254,0.21,0.175,0.192,0.287,0.404,1.22,1.12,1.22,0.896,0.783,0.303,0.649,0.578,0.172,0.148,0.219,0.179
